One assay has as its system MCF-7. Description: In vitro cytotoxicity (alamarBlue). In kind it is cell-based. The conditions noted are these: Homo sapiens, MCF7; MCF-7, 48 h. As to the method: (§1) Doxorubicin hydrochloride (DOX) was used as the positive control. For the MCF-7 and MCF-7/ADR, the initial concentration of DOX used was 10 μg/mL and 100 μg/mL, respectively.
(In general: Alamar Blue is a resazurin reagent that responds to reducing activity.)

The subject of another assay is MCF-7/ADR cells. Description: Cellular morphology staining. In kind it is cell-based, human. The conditions noted are these: 24 h, PLL-Gua and Gua-NPs 25 μg/mL, DOX 5.8 μg/mL. As to the method: (§2) MCF-7 and MCF-7/ADR cells were seeded at a density of 1000 cells/well in 50 μL medium, in a 384-well plate (PerkinElmer View Plate-384 Black). […] Treatment was performed at final concentrations of 25 μg/mL for PLL-Gua and Gua-NPs (on PLL-Gua basis) and 5.8 μg/mL for DOX, with a final volume of 40 μL per well. […] Subsequently, mitochondria were stained with Mito Tracker Deep Red solution in medium, with a final concentration of 100 nM. […] To fix the cells, 20 μL of 16% formaldehyde in PBS were added to each well (final concentration: 4%) and incubated in the dark at room temperature for 20 min. The cells were washed two times with 70 μL of Hanks' balanced salt solution (HBSS). […] The cells were incubated in the dark at room temperature for 30 min. Then, the cells were washed three times with 70 μL HBSS. The HBSS was not aspirated after the final washing step. The plates were sealed and centrifuged for 1 min at 500 rpm. The plate was then imaged using an Opera Phenix high content screening microscope (PerkinElmer) in 4 channels (Ex405/Em456; Ex488/Em522; Ex561/Em599; Ex640/Em706) with 9 sites per well and 63× magnification (binning 2).

Assay [1] has as its system MCF-7 cells. Description: Cellular morphology staining. To be noted: MCF-7, 24 h; PLL-Gua and Gua-NPs 25 μg/mL, DOX 5.8 μg/mL. In kind it is cell-based, human. As to the method:
as §2

In assay [2] the test system is MCF-7 cells. Description: Inhibition of cell migration (wound scratch assay). The conditions noted are these: 24 h at respective IC50. In kind it is cell-based, human. As to the method:
MCF-7 cells (8×10^5/well) were seeded in 6-well plates and incubated overnight for cell adhesion. To create a scratch, a 200 μL pipet tip was used to scrape a straight line through the cell layer. The old media was removed and washed with PBS, and the cells observed under a microscope to acquire images of the original scratch. […] After that, the scratches were observed and imaged using a microscope (Leica, Germany).

Another assay deals with MCF-7/ADR. The assay is described as follows: In vitro cytotoxicity (alamarBlue). The format is cell-based, human. As to the method: as §1

Counter-ions that a name gives are not always drawn.

Broadly, the IC50 is the concentration needed to halve the response being measured. A lower IC50 goes with greater potency in that assay. In the assay on MCF-7, `COc1cccc2c1C(=O)c1c(O)c3c(c(O)c1C2=O)C[C@@](O)(C(=O)CO)C[C@@H]3O[C@H]1C[C@H](N)[C@H](O)[C@H](C)O1` [DOX, Doxorubicin hydrochloride] came in with an IC50 of 0.13 µg/mL. The cellular morphology entry with MCF-7/ADR cells was “did not induce such changes”; with MCF-7 cells [1] it was “drastic decrease in the staining of DNA and RNA”. In addition, the MCF-7 cell migration entry in the assay with MCF-7 cells [2] is “reduced wound gap”. In the assay with MCF-7/ADR, the “difference of IC50 value, MCF-7/ADR vs MCF-7” value was 769 fold.

The record behind these values is US20240327469A1, “FUNCTIONALISED POLYPEPTIDES, NANOPARTICLES AND USES THEREOF” (priority 2021, published 2024).
